For the test, the system named is CCHF-vOTU. As to the kind of experiment: PubChem AID 743476. To be noted: Recombinant CCHFV vOTU, PEP-AMC fluorescence cleavage, with PEP-AMC substrate, stronger effect = higher value.

Calls of active or inactive are those of the source. The rule behind the calls is not given here.

Take `CN(C1=C(NC(=O)c2ccccc2)C(=O)c2ccccc2C1=O)C1CCS(=O)(=O)C1` (stereo not drawn): the inhibition is 54.2% (Assay 1, at 2.43 µM) and 22.7% (Assay 2, at 2.43 µM).

For `O=C(COC(=O)c1ccc([N+](=O)[O-])s1)Nc1ccc(F)cc1`, the inhibition was 9.26% (inactive) (Assay 1, at 7.8 µM); 9.2% (inactive) (Assay 2, at 7.8 µM); 17.4% (inactive) (Assay 3, at 15.6 µM).

Regarding `CCc1cc[n+](C2=C(NS(=O)(=O)c3cccs3)C(=O)c3ccccc3C2=O)cc1`, the inhibition is 13.7% (inactive) (Assay 1, at 4.39 µM); 18.6% (inactive) (Assay 2, at 4.39 µM); 37.9% (Assay 3, at 8.78 µM).

On to `CC(=O)c1ccc(NC(=S)Nc2cccc3cnccc23)cc1`, for which the inhibition by setting is: (Assay 1, at 6.84 µM) 0.13% (inactive); (Assay 2, at 6.84 µM) 3.01% (inactive); (Assay 3, at 13.68 µM) 6.6% (inactive).

In the case of `Cn1nc(-c2ccccn2)nc2c(=O)n(C)c(=O)nc1-2`, the inhibition (Assay 1, at 0.37 µM) is 63.3% and the inhibition (Assay 2, at 0.37 µM) is 56.2%.

For `S=C(Nc1ccc(Cl)cc1)Nc1cccc2cnccc12`, the inhibition (Assay 1, at 6.44 µM) is -17.9% (inactive); the inhibition (Assay 2, at 6.44 µM) was 5.81% (inactive); the inhibition (Assay 3, at 12.88 µM) was 7.7% (inactive).

Turning to `O=C(COC(=O)c1ccc([N+](=O)[O-])s1)NCc1ccc(F)cc1`, the inhibition is, setting by setting: (Assay 1, at 8.08 µM) -23.4% (inactive); (Assay 2, at 8.08 µM) 7.84% (inactive); (Assay 3, at 2.56 µM) 11.4% (inactive).

As to `CCOC(=O)N=Nc1c2ccccc2c2nc3no[nH]c3nc12`, the inhibition (Assay 1, at 2.35 µM) was 8.81% (inactive); the inhibition (Assay 2, at 2.35 µM) is 13.6% (inactive); the inhibition (Assay 3, at 4.7 µM) is 25.3%.

With `O=C1Cc2ccccc2C(=O)N1Cc1ccccc1`, the inhibition is 38.7% (Assay 1, at 1.28 µM) and 50.3% (Assay 2, at 1.28 µM).

On to `COc1cc(C(=O)c2nccc3cc(OC)c(OC)cc23)c([N+](=O)[O-])cc1OC`, for which the inhibition (Assay 1, at 1.05 µM) was 6.05% (inactive); the inhibition (Assay 2, at 1.05 µM) was 15% (inactive); the inhibition (Assay 3, at 2.1 µM) is 17.8% (inactive).

For the compound `Cc1c(Cl)cnc(NC(=O)COC(=O)c2ccc([N+](=O)[O-])s2)c1Cl`, the inhibition runs as follows: (Assay 1, at 7.08 µM) 9.06% (inactive); (Assay 2, at 7.08 µM) 5.86% (inactive); (Assay 3, at 14.16 µM) 14.2% (inactive).

Consider `O=C1Cc2ccccc2C(=O)N1`, for which the inhibition is, setting by setting: (Assay 1, at 0.4 µM) 38.8%; (Assay 2, at 0.4 µM) 54.3%.

Regarding `O=C(OCc1nnc(-c2ccccc2)o1)c1ccc([N+](=O)[O-])s1`, the inhibition reads like this: (Assay 1, at 7.52 µM) 3.79% (inactive); (Assay 2, at 7.52 µM) -3.16% (inactive); (Assay 3, at 15.04 µM) 25%.

Take `Cc1ccc(N2C(=O)[C@@H]3[C@H](C2=O)C2c4ccccc4C=CN2[C@@H]3C(=O)c2ccco2)cc1` (stereo partly drawn): the inhibition reads like this: (Assay 1, at 4.21 µM) 8.15% (inactive); (Assay 2, at 4.21 µM) 18.6% (inactive); (Assay 3, at 8.42 µM) 44.7%.

As to `COc1ccccc1NC(=O)COC(=O)c1ccc([N+](=O)[O-])s1`, the inhibition by setting is: (Assay 1, at 9.94 µM) -1.05% (inactive); (Assay 2, at 9.94 µM) 9.34% (inactive); (Assay 3, at 19.88 µM) 20%.

In the case of `CCC(CNc1cc(OC)cc2cccnc12)NC1CCCCC1` (stereo not drawn), the inhibition reads like this: (Assay 1, at 6.32 µM) -27% (inactive); (Assay 2, at 6.32 µM) 13.6% (inactive); (Assay 3, at 12.64 µM) 52.4%.

Take `O=C(O)CSc1cc(NS(=O)(=O)c2ccc(Cl)cc2)c2ccccc2c1O`: the inhibition was 6.76% (inactive) (Assay 1, at 5 µM); 8.14% (inactive) (Assay 2, at 5 µM); 7.8% (inactive) (Assay 3, at 10 µM).

As for `O=C(COC(=O)c1ccc([N+](=O)[O-])s1)Nc1ncc(C(F)(F)F)cc1Cl`, the inhibition (Assay 1, at 8.84 µM) is 23.2%; the inhibition (Assay 2, at 8.84 µM) is 19.8% (inactive); the inhibition (Assay 3, at 17.68 µM) is 30.5%.

As to `NS(=O)(=O)c1ccc(NC2=CC(=O)C(=O)c3ccccc32)cc1`, the inhibition is, setting by setting: (Assay 1, at 4.85 µM) 6.01% (inactive); (Assay 2, at 4.85 µM) 30.6%.

With `O=c1[nH]c(Nc2ccccc2)cc2cc(Br)ccc12`, the inhibition was 34.1% (Assay 2, at 1 µM) and 42.6% (Assay 3, at 2 µM).

Take `CC1(C)C=C2C(=NN(c3ccccc3)C(N)=C2C#N)CO1`: the inhibition (Assay 1, at 1.83 µM) was -4.71% (inactive) and the inhibition (Assay 2, at 1.83 µM) was 23.4%.

In the case of `O=C(COC(=O)c1ccc([N+](=O)[O-])s1)Nc1ccccc1`, the inhibition reads like this: (Assay 2, at 10.31 µM) 8.51% (inactive); (Assay 3, at 20.62 µM) 4.9% (inactive).

The inhibition is the drop in the measured response relative to a control, in per cent.

The values above are taken from PubChem BioAssay AID743476 (The Scripps Research Institute Molecular Screening Center, 2014).
